Experimental data reported in paper PMC2742306 (Molecular cell, 2009).
No end group written: not given here. βAla = NCCC(=O)O

Experiments:
[1] = target: T1, D320A DegS (Escherichia coli, UniProt P0AEE3, D320A); assay type: biochemical, E. coli
[2] = target: T2, K243D mutant of DegS (Escherichia coli, UniProt P0AEE3, K243D); assay: Global fit to MWC allosteric model, K243D DegS; assay type: biochemical, E. coli; details: K243D, MWC global fit
[3] = target: T3, wild-type DegS (Escherichia coli, UniProt P0AEE3); assay type: biochemical, E. coli
[4] = target: T1, D320A DegS; assay: OMP-peptide activation of RseA cleavage by D320A DegS; assay type: biochemical, E. coli
[5] = target: T3, wild-type DegS; details: 200 μM RseA, ref Sohn et al. (2007); cited from earlier work
[6] = target: T1, D320A DegS; assay: Global fit to MWC allosteric model, D320A DegS; assay type: biochemical, E. coli; details: D320A, MWC global fit
[7] = target: K243D/M319A double mutant of DegS (Escherichia coli, UniProt P0AEE3, K243D/M319A); assay type: biochemical, E. coli; details: saturating peptide
[8] = target: T2, K243D mutant of DegS; assay type: biochemical, E. coli
[9] = target: K243D/D320A mutant of DegS (Escherichia coli, UniProt P0AEE3, D320A/K243D); assay type: biochemical, E. coli
[10] = target: T3, wild-type DegS; assay type: biochemical, E. coli; details: wild-type DegS 0.9 μM trimer; 20 μM rhodamine-FP; saturating peptide
[11] = target: T3, wild-type DegS; details: saturating peptide, ref Sohn et al. (2007); cited from earlier work
[12] = target: T4, DegS K243D/D320A double mutant (residues 27–355, N-terminal His6 tag) (E. coli, UniProt P0AEE3 27-355, K243D | D320A); assay: cell-based or functional assay
T4 sequence (looked up): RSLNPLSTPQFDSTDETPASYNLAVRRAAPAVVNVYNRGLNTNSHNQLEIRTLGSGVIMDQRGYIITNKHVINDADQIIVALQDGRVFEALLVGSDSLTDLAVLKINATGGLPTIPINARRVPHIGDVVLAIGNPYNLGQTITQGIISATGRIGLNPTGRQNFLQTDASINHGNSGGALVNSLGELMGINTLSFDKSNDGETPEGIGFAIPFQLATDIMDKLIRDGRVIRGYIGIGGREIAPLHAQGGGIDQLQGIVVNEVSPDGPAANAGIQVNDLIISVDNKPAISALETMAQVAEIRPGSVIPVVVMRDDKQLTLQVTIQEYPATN

[13] = target: T5, DegS D320A (residues 27–355, N-terminal His6 tag) (E. coli, UniProt P0AEE3 27-355, D320A); assay: cell-based or functional assay
T5 sequence (looked up): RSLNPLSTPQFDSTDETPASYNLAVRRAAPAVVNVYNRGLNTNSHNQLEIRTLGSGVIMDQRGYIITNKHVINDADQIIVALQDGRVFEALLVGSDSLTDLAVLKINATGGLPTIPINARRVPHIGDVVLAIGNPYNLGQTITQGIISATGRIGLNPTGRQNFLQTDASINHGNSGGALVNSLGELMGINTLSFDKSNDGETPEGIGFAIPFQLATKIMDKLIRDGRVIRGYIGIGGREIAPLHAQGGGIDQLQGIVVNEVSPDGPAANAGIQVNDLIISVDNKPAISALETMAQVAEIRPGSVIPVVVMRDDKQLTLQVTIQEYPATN

[14] = target: T6, DegS K243D (residues 27–355, N-terminal His6 tag) (E. coli, UniProt P0AEE3 27-355, K243D); assay: cell-based or functional assay
T6 sequence (looked up): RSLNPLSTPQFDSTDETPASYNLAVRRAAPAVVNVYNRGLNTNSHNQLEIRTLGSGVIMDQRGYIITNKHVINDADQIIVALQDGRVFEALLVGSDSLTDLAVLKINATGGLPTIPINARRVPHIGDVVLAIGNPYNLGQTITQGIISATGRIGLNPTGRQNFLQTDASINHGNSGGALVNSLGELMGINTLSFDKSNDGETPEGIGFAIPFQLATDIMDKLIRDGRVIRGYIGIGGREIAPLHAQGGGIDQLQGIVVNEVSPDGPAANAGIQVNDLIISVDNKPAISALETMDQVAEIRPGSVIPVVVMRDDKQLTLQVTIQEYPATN

[15] = target: T7, DegS K243D/M319A double mutant (residues 27–355, N-terminal His6 tag) (E. coli, UniProt P0AEE3 27-355, K243D | M319A); assay: cell-based or functional assay
T7 sequence (looked up): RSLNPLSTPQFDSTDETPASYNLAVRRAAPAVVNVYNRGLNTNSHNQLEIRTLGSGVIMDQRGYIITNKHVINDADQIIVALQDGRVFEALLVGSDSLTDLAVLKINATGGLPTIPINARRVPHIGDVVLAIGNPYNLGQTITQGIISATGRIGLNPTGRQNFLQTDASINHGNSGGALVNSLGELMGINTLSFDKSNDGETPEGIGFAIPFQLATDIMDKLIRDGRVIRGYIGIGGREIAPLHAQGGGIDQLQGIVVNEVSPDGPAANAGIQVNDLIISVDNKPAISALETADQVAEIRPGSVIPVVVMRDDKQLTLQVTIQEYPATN

[16] = test system: DegS and its mutants; assay: Global fit to MWC allosteric model, RseA substrate binding; assay type: biochemical, E. coli
[17] = target: T8, DegS M319A (residues 27–355, N-terminal His6 tag) (E. coli, UniProt P0AEE3 27-355, M319A); assay: fluorescence polarisation
T8 sequence (looked up): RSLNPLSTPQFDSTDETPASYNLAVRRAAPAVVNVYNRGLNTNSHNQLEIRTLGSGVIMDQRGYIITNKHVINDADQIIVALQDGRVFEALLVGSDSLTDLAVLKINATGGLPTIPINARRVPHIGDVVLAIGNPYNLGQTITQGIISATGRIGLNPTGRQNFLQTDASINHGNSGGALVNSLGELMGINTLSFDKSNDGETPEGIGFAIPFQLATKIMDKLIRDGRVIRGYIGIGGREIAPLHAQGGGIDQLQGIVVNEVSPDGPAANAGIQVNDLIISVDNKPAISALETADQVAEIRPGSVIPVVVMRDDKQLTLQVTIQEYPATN

[18] = target: T7, DegS K243D/M319A double mutant …; assay: fluorescence polarisation
[19] = enzyme parameter, peptide-independent
[20] = peptide preference for relaxed state
[21] = same value for all enzymes and peptides

T3 sequence (P0AEE3 27-355): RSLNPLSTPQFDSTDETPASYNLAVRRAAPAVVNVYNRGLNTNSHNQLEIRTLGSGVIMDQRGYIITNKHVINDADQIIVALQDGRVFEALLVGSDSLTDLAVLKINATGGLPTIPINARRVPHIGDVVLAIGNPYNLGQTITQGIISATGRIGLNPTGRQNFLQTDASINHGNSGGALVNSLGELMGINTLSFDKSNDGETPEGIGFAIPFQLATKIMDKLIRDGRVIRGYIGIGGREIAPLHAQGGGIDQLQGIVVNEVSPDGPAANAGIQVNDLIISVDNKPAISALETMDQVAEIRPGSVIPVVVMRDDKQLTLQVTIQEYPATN

**Q.** Which “Vmax (RseA cleavage)” value ([1]; D320A 0.3 μM trimer, saturating peptide (DNRDGNVYYF 30 μM), 23 °C, pH 8.3) does the source give for DNRDGNVYYF [DNRDGNVYYF] here?
**A.** 2.5 ± 0.3 s^−1enz^−1

**Q.** What about the “Hill Constant (RseA substrate)” value ([1]; D320A, saturating peptide) of the same molecule?
**A.** 1.1 ± 0.2

**Q.** And the “KRS, dissociation constant of RseA substrate for R-state subunit” value ([2]; RseA, not peptide, binding)?
**A.** 150 µM

**Q.** And the “KTS, dissociation constant of RseA substrate for T-state subunit” value ([2]; RseA, not peptide, binding)?
**A.** 505 µM

**Q.** And the “L0, equilibrium constant T/R of unliganded enzyme” value (shortened to “L0, equilibrium constant T/R”) [2, 19]?
**A.** 180

**Q.** And the KTP/KRP [2, 20]?
**A.** 2.0

**Q.** And the “kr, rate constant for cleavage of RseA by substrate-bound R-state subunits” value (“kr … by substrate-bound R-state subunits” below) [2, 21]?
**A.** 3.3 s⁻¹

**Q.** And the “L0, equilibrium constant T/R” value ([3]; MWC global fit, enzyme parameter, peptide-independent)?
**A.** 15000

**Q.** What about the KTP/KRP ([3]; MWC global fit, peptide preference for relaxed state) of the same molecule?
**A.** 6.8

**Q.** And the “kr … by substrate-bound R-state subunits” value ([3]; MWC global fit, same value for all enzymes and peptides)?
**A.** 3.3 s⁻¹

**Q.** And the “DegS molecules in active conformation” value ([3]; saturating peptide and saturating RseA substrate, MWC model)?
**A.** 45%

**Q.** What about the EC50 [4] of the same molecule?
**A.** 200 ± 100 nM

**Q.** And the “Hill Constant (peptide activation)” value [5]?
**A.** 1.8 ± 0.2

**Q.** What about the “KRS, dissociation constant of RseA substrate for R-state subunit” value ([6]; RseA, not peptide, binding) of the same molecule?
**A.** 150 µM

**Q.** And the “KTS, dissociation constant of RseA substrate for T-state subunit” value ([6]; RseA, not peptide, binding)?
**A.** 505 µM

**Q.** And the “L0, equilibrium constant T/R” value [6, 19]?
**A.** 350

**Q.** What about the KTP/KRP [6, 20] of the same molecule?
**A.** 3.3

**Q.** And the “kr … by substrate-bound R-state subunits” value [6, 21]?
**A.** 3.3 s⁻¹

**Q.** What about the “Hill Constant (RseA substrate)” value [7] of the same molecule?
**A.** 1.2 ± 0.1

**Q.** And the “Vmax (RseA cleavage)” value ([7]; 23 °C, pH 8.3)?
**A.** 1.4 ± 0.1 s^−1enz^−1

**Q.** What about the “Vmax (RseA cleavage)” value ([8]; K243D 0.3 μM trimer, saturating peptide (DNRDGNVYYF 30 μM), 23 °C, pH 8.3) of the same molecule?
**A.** 1.8 ± 0.2 s^−1enz^−1

**Q.** And the “Hill Constant (RseA substrate)” value ([8]; K243D, saturating peptide)?
**A.** 1.3 ± 0.1

**Q.** And the “Vmax (RseA cleavage)” value ([9]; K243D/D320A 0.3 μM trimer, DNRDGNVYYF 30 μM, 23 °C, pH 8.3)?
**A.** 2.0 ± 0.3 s^−1enz^−1

**Q.** And the “Hill Constant (RseA substrate)” value ([9]; K243D/D320A, saturating OMP peptide)?
**A.** 1.1 ± 0.1

**Q.** And the “rate of rhodamine-FP modification in presence of peptide (order)” value [10]?
**A.** slower

**Q.** And the “Hill Constant (RseA substrate)” value [11]?
**A.** 1.6 ± 0.2

**Q.** And the “Vmax (RseA cleavage)” value [11]?
**A.** 1.1 ± 0.2 s^−1enz^−1

B1: 35S-labeled variant of the periplasmic domain of E. coli RseA (residues 121–216) with a C-terminal His6 tag (domain or fragment, UniProt P0AFX7 121-216, looked up)
chain: YNGQSETSQQPETPVFNTLPMMGKASPVSLGVPSEATANNGQQQQVQEQRRRINAMLQDYELQRRLHSEQLQFEQAQTQQAAVQVPGIQTLGTQSQ
modifications: 35S-labeled
**Q.** For B1, which “KM of RseA cleavage with saturating … peptide” value [12] is on record?
**A.** 630 µM

**Q.** What about the “KM of RseA cleavage with saturating YYF peptide” value (“KM … with saturating YYF peptide” below) [13] of the same molecule?
**A.** 430 µM

**Q.** What about the “KM of RseA cleavage with saturating … peptide” value [13] of the same molecule?
**A.** 520 µM

**Q.** And the “KM … with saturating YYF peptide” value [14]?
**A.** 440 µM

**Q.** And the “KM of RseA cleavage with saturating … peptide” value [14]?
**A.** 580 µM

**Q.** What about the “KM … with saturating YYF peptide” value [15] of the same molecule?
**A.** 490 µM

**Q.** And the “KM of RseA cleavage with saturating … peptide” value [15]?
**A.** 840 µM

B2: RseA: 35S-labeled variant of the periplasmic domain of E. coli RseA (residues 121–216) with a C-terminal His6 tag (protein)
chain: YNGQSETSQQPETPVFNTLPMMGKASPVSLGVPSEATANNGQQQQVQEQRRRINAMLQDYELQRRLHSEQLQFEQAQTQQAAVQVPGIQTLGTQSQ
modifications: 35S-labeled; left off: His6, C-terminal, state not stated
**Q.** With B2 as the molecule, how does the “preference for relaxed state in substrate-saturated trimer” value [16] read?
**A.** approximately 40 fold

B3: OMP peptide fluoresceine-β-alanine-KKDNRDGNYYF (peptide)
peptide: {fluoresceine-βAla}-KKDNRDGNYYF
**Q.** Which results are given for B3?
**A.** Kd [17]: 140 nM; Kd [18]: 180 nM
